Results published in patent EP0969089A1, “Phytase formulation” (F. HOFFMANN-LA ROCHE AG, priority 1998, dated 2000).
Read-outs that look alike come from different tables or passages of the source. Each block holds one compound with its values, some of them ahead of it.

What was measured:
A. fumigatus phytase = biological target: T1, A. fumigatus phytase (Aspergillus fumigatus, UniProt O00092); format: biochemical; settings: for effects on the thermostability of the protein: sodium acetate 5, 10 and 25%; for temperature at which considerable activity still being detected: dicarboxylate at 25% (12.5% final concentration in the activity assay); for increase in phytase activity measured at 37 °C: dicarboxylates; for effect on the thermostabilization of A. fumigatus phytase: polyols with more than 6 or less than 5 carbon atoms, 65 °C
T1 construct: made in house; host or cells: Hansenula polymorpha
T1 sequence (O00092 27-465): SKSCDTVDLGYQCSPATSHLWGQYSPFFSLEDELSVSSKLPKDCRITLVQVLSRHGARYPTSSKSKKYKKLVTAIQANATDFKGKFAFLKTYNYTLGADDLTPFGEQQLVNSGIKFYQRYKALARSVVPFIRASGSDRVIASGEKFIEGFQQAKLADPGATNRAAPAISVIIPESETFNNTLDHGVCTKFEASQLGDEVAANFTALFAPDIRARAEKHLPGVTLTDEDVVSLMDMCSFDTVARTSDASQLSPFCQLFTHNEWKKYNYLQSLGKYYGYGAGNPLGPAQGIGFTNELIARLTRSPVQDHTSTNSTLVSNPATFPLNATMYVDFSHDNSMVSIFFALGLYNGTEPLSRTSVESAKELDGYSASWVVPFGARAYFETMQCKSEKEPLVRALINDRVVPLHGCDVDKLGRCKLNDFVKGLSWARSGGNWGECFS
Protocol: (§1) After incubation of the sample for 15 mm at the desired temperature (e.g. at 60 or 65 °C for the screening of additive effects), the reaction was stopped by addition of 0.5 ml 15% trichloroacetic acid. Determination of liberated inorganic phosphate was performed by standard methods.
(§2) Disodium malonate, succinate and glutarate were dissolved at concentrations of 5, 10 and 25% and phytase activity was measured after preincubation of enzyme plus additive and substrate (see above) at the following temperatures: 37, 45, 50, 55, 60, 65, 70, 75, 80, and 85 °C. In the same way, the temperature dependence of the activity of different phytases in the presence of 25% xylitol and ribitol was tested. It should be noted that the concentration of the additives was reduced by half after substrate addition.

A. niger phytase = biological target: T2, A. niger phytase (Aspergillus niger, UniProt P34752); experiment: Effect of stabilizing additives on thermostability of A. niger phytase; format: biochemical; settings: 25% dicarboxylate
T2 construct: made in house; host or cells: Aspergillus niger
T2 sequence (P34752 24-467): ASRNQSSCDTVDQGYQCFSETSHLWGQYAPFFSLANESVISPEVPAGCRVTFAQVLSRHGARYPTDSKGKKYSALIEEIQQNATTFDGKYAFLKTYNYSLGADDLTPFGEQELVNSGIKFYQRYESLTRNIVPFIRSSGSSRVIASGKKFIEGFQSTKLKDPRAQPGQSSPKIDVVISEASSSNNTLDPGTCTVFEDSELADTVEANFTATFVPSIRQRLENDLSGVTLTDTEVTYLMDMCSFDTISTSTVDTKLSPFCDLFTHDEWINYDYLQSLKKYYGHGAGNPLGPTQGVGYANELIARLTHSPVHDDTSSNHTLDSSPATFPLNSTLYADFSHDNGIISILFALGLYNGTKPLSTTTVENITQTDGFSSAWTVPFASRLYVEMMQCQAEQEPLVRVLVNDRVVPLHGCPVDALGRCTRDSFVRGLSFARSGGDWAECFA
Protocol: as §1, §2

consensus phytase = experiment: Effect of stabilizing additives on thermostability of consensus phytase; format: biochemical; settings: for increase of thermostability: 25% dicarboxylate
Protocol: as §1
as §2, with “In the same way, the temperature dependence of the activity of different phytases in the presence of 25% xylitol and ribitol was tested.” left out

A. nidulans phytase = biological target: T3, A. nidulans phytase (Emericella nidulans, UniProt O00093); experiment: Effect of stabilizing additives on thermostability of A. nidulans phytase; format: biochemical, Aspergillus nidulans; settings: 25% dicarboxylate
T3 construct: made in house; host or cells: Aspergillus niger
T3 sequence (O00093 20-463): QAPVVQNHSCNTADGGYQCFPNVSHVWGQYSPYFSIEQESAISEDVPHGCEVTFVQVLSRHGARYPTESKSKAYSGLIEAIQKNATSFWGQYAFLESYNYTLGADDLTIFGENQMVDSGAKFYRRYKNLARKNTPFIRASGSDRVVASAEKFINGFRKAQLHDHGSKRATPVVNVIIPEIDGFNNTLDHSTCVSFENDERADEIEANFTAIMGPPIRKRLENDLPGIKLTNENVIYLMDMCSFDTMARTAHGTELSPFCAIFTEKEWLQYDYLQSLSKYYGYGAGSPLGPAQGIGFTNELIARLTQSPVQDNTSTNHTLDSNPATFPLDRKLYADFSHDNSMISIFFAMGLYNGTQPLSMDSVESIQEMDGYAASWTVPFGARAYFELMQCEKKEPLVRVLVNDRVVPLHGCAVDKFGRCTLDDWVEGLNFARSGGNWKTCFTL
Protocol: as §1, §2

A. terreus CBS phytase = biological target: T4, A. terreus CBS phytase (Aspergillus terreus, UniProt O00100); experiment: Effect of stabilizing additives on thermostability of A. terreus CBS phytase; format: biochemical; settings: 25% dicarboxylate
T4 construct: made in house; host or cells: Hansenula polymorpha
T4 sequence (O00100 20-466): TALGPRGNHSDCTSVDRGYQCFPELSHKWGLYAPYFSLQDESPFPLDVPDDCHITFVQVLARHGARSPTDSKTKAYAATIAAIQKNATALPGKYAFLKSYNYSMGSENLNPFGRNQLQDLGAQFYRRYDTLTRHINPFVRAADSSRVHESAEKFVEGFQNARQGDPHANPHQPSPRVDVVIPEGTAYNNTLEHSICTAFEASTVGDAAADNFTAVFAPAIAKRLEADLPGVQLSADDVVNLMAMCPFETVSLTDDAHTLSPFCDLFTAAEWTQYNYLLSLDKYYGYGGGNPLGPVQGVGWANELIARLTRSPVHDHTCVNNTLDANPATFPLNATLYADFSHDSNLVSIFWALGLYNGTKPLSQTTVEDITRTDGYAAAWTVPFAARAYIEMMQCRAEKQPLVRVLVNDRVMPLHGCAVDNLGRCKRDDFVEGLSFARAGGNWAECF
Protocol: as §1, §2

[1] = Solubility of polyols in assay buffer; settings: at a concentration of 50% (w/w)
Protocol: PEGs have been dissolved at a concentration of 50% with the exception of PEGs with a molecular weight of 4000, 8000 and 10000 which were used at a concentration of 25%. For the screening of PEGs and other polyols, the preincubation and reaction temperature was chosen as 60 °C for A. nidulans and A. terreus CBS phytase, 65 °C for A. fumigatus and A. niger phytase and 75 °C for consensus phytase.

[2] = in the presence of 50% solutions of polyol
[3] = polyol at a concentration of 12.5%
[4] = polyol at a concentration of 25%

effects on the thermostability of the protein (A. fumigatus phytase): only minor effects
effects on the thermostability of the protein (A. fumigatus phytase; listed as Sodium acetate): no effect
Structure (SMILES): CC(=O)O [sodium acetate]

Structure (SMILES): O=C(O)CC(=O)O [malonate, disodium malonate]
increase of thermostability (A. niger phytase): 5-15 °C
increase of thermostability (consensus phytase): 5-15 °C
increase of thermostability (A. nidulans phytase): 5-15 °C
temperature at which considerable activity still being detected (A. fumigatus phytase): 70 °C
increase in phytase activity measured at 37 °C (A. fumigatus phytase): approximately 4 fold
increase of thermostability (A. terreus CBS phytase): 5-15 °C

Structure (SMILES): OC[C@@H](O)[C@H](O)[C@@H](O)CO [xylitol]
increase of temperature optimum (consensus phytase; xylitol 50%): 10-15 °C
specific activities measured at 65 °C (A. fumigatus phytase; in the presence of 25% polyol): 21 U*(mg protein)^-1
specific activities measured at 65 °C (A. fumigatus phytase; [2]): 90 U*(mg protein)^-1
specific activity measured at 65 °C (A. fumigatus phytase; [3]): 11-12 U/mg
specific activity measured at 65 °C (A. fumigatus phytase; [4]): 51-90 U/mg

solubility in 0.2 M sodium acetate, pH 5.0 [1]: not soluble
effect on the thermostabilization of A. fumigatus phytase (A. fumigatus phytase): inferior effect
Structure (SMILES): O=C[C@@H](O)[C@@H](O)[C@H](O)[C@H](O)[C@H](O)CO [mannoheptose]

Structure (SMILES): OC[C@@H](O)[C@@H](O)[C@@H](O)CO [ribitol]
specific activities measured at 65 °C (A. fumigatus phytase; in the presence of 25% polyol): 11 U*(mg protein)^-1
specific activities measured at 65 °C (A. fumigatus phytase; [2]): 51 U*(mg protein)^-1
specific activity measured at 65 °C (A. fumigatus phytase; [3]): 11-12 U/mg
specific activity measured at 65 °C (A. fumigatus phytase; [4]): 51-90 U/mg

Structure (SMILES): O=C(CO)[C@@H](O)[C@@H](O)[C@H](O)[C@H](O)CO [mannoheptulose]
solubility in 0.2 M sodium acetate, pH 5.0 [1]: not soluble
effect on the thermostabilization of A. fumigatus phytase (A. fumigatus phytase): inferior effect

Structure (SMILES): OCC(O)CO [glycerol]
effect on the thermostabilization of A. fumigatus phytase (A. fumigatus phytase): inferior effect

specific activities measured at 65 °C (A. fumigatus phytase; in the presence of 25% polyol): 11 U*(mg protein)^-1
specific activities measured at 65 °C (A. fumigatus phytase; [2]): 74 U*(mg protein)^-1
Structure (SMILES): OC[C@@H](O)[C@@H](O)[C@H](O)[C@@H](O)CO [sorbitol]

Structure (SMILES): O=C(O)CCC(=O)O [succinate, disodium succinate]
increase of thermostability (A. niger phytase): 5-15 °C
increase of thermostability (consensus phytase): 5-15 °C
increase of thermostability (A. nidulans phytase): 5-15 °C
temperature at which considerable activity still being detected (A. fumigatus phytase): 65 °C
increase in phytase activity measured at 37 °C (A. fumigatus phytase): 2 fold
increase of thermostability (A. terreus CBS phytase): 5-15 °C

Structure (SMILES): OC[C@@H](O)[C@@H](O)CO [erythritol]
solubility in 0.2 M sodium acetate, pH 5.0 [1]: not soluble
effect on the thermostabilization of A. fumigatus phytase (A. fumigatus phytase): inferior effect
